What all share (format): cell-based
The subject of assay [1] is HeLa tumoral cells (human carcinoma). The experiment in a line: Cellular phenotype (immunofluorescence and microscopy; α-tubulin, γ-tubulin, DAPI). Particulars: 24 h treatment. How it is done: The HeLa tumoral cells (human carcinoma) were cultured for 24 h on 12 mm diameter glass slides, placed in 24-well culture plates (7.10^3 cells per well).
The cells were then treated for a new period of 24 h by the molecule I-1 at the tested concentrations. […] The DNA was labelled with DAPI (0.2 μg/ml—15 minutes—37° C.). After the different labellings, the slides were dried and mounted in a Vectashield mounting liquid (AbCys, France), before being observed through an epi-fluorescence microscope (Axiovert 200M; objective×63 Plan Apochromat NA, 1.4; ZEISS, France).

A further assay relates to MCF7 (breast cancer). Briefly: Growth inhibition of human cancer cell lines, ATP-lite luminescence, MCF7. Particulars: MCF7, 48 h incubation, cell survival by ATP luminescence. How it is done:
(§1) The cancerous cells [lines A549 (non small cell lung cancer), BxPC3 (cancer of the pancreas), LoVo (colon cancer), MCF7 (breast cancer), Namalwa (Burkitt's lymphoma) and SK-OV-3 (ovarian cancer)] were cultured in a 96-well plate in RPMI 1640 medium without phenol red (Seromed) to which was added 10% of foetal veal serum (100 μl/well, 1 to 3.10^4 cells/ml depending on the considered line). After an incubation of 24 h at 37° C. in an incubator with 5% CO2, the medium was replaced by that containing the compound to be tested (molecule I-1), after which the plates were incubated for an additional 48 h. Cell survival was evaluated by measurement of the luminescence after release of ATP in the medium using the cell lysis solutions, luciferase and luciferine contained in the ATP-lite-MTM kit, as recommended by the manufacturer (Packard, Rungis, France). Each experimental condition was tested at least three times in sextuplets. The table below presents the IC50 data (expressed in M) of the molecule I-1, as a function of the different cell lines tested.

Assay [2] deals with A549 (non small cell lung cancer). Briefly: Growth inhibition of human cancer cell lines, ATP-lite luminescence, A549. The settings on record: A549, 48 h incubation, cell survival by ATP luminescence. The method, then:
as §1

The next assay deals with LoVo (colon cancer). Briefly: Growth inhibition of human cancer cell lines, ATP-lite luminescence, LoVo. The settings on record: 48 h incubation, cell survival by ATP luminescence. How it is done: as §1
The test system of another assay is SK-OV-3 (ovarian cancer). The experiment in a line: Growth inhibition of human cancer cell lines, ATP-lite luminescence, SK-OV-3. The settings on record: SK-OV-3, 48 h incubation, cell survival by ATP luminescence. The method, then: as §1
The test system of assay [3] is Namalwa (Burkitt's lymphoma). The experiment in a line: Growth inhibition of human cancer cell lines, ATP-lite luminescence, Namalwa. Particulars: 48 h incubation, cell survival by ATP luminescence. How it is done:
as §1

In assay [4] the test system is BxPC3 (cancer of the pancreas). The experiment in a line: Growth inhibition of human cancer cell lines, ATP-lite luminescence, BxPC3. The settings on record: BXPC-3, BxPC3, 48 h incubation, cell survival by ATP luminescence. How it is done: as §1

As for `COC(CCC(C)C1(O)CC(C(C)/C=C(C)/C=C(\C)C(O)C(C)C(O)C(C)C(OC)C(C)/C=C/C=C/C=C/C(=O)O)OC(=O)C1O)CC(CC(O)C(C)C/C=C/C(C)C1CC(C(C)CCC(C)O)C(O)C(=O)O1)OC` (stereo not shown) [molecule I-1], the “Centrosomes of interphasic cells (γ-tubulin labelling)” value in assay [1] (between 5.10^−9M and 5.10^−8M) was “often separated and normally labelled by γ-tubulin”. In addition, the “Microtubular cytoskeleton of interphasic cells (labelling by α-tubulin)” value in assay [1] (between 5.10^−9M and 5.10^−8M) is “devoid of microtubular cytoskeleton”. Besides, the “Centrosomes of mitotic cells (γ-tubulin labelling)” value in assay [1] (between 10^−9M and 5.10^−8M) is “normally present and labelled by γ-tubulin”. The “Mitotic cells: mitotic block and microtubules (α-tubulin labelling)” value in assay [1] (dose effect between 10^−9M and 5.10^−8M) is listed as “blocked in prometaphase without microtubules”. For the same molecule, the IC50 in the assay on MCF7 (breast cancer) turned out to be 0.011 nM; in assay [2], 0.82 nM; in the assay with LoVo (colon cancer) it was 0.081 nM; with SK-OV-3 (ovarian cancer) it was 0.33 nM; in assay [3], 1.1 nM; in assay [4], 0.47 nM.

One may read the IC50 as the concentration that gives 50% inhibition.

The record behind these values is patent US8569362B2, “Polyketide molecules as anticancer agents” (Pierre Fabre Medicament, priority 2009, dated 2013).
